# Experimental data as given in ChEMBL document CHEMBL1153442, “Synthesis and in vitro evaluation of sulfonamide isatin Michael acceptors as small molecule inhibitors of caspase-6” (J Med Chem, 2009).
# Molecular target: T1, Caspase-1 (Homo sapiens, UniProt P29466)
# T1 sequence (P29466 whole entry): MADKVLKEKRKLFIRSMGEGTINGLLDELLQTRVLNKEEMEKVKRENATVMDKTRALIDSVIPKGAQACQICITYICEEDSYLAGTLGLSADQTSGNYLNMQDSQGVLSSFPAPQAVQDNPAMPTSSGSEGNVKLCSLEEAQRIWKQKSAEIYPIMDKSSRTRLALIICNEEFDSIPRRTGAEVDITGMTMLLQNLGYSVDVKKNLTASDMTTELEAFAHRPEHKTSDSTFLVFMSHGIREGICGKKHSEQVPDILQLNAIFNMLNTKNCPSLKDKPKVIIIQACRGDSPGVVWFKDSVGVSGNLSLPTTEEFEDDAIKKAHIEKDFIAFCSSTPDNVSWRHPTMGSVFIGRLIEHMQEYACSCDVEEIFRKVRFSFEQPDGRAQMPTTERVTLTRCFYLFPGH
# Assay: Inhibition of human recombinant caspase 1 assessed as accumulation of fluorogenic product by fluorometric assay
row,IC50 [nM],SMILES
1,4700,COc1ccc(CN2C(=O)C(=C(C#N)C#N)c3cc(S(=O)(=O)N4CCCC4)ccc32)cc1
2,6820,COc1ccc(CN2C(=O)C(=C(C#N)C#N)c3cc(S(=O)(=O)N4CCOCC4)ccc32)cc1
3,> 10000,N#CC(C#N)=C1C(=O)N(Cc2ccc(Cl)c(Cl)c2)c2ccc(S(=O)(=O)N3CCCC3)cc21
4,> 10000,O=C1C(=O)N(Cc2ccccc2)c2ccc(S(=O)(=O)N3CCSCC3)cc21
5,> 25000,O=C1C(=O)N(Cc2ccc(Cl)c(Cl)c2)c2ccc(S(=O)(=O)N3CCOCC3)cc21
6,4180,COc1ccc(CN2C(=O)C(=C(C#N)C#N)c3cc(S(=O)(=O)N4CCC4)ccc32)cc1
7,4580,N#CC(C#N)=C1C(=O)N(Cc2ccccc2)c2ccc(S(=O)(=O)N3CCSCC3)cc21
8,4300,COc1ccc(CN2C(=O)C(=C(C#N)C#N)c3cc(S(=O)(=O)N4CCSCC4)ccc32)cc1
9,3300,N#CC(C#N)=C1C(=O)N(Cc2ccccc2)c2ccc(S(=O)(=O)N3CCC3)cc21
10,4700,N#CC(C#N)=C1C(=O)N(Cc2ccccc2)c2ccc(S(=O)(=O)N3CCCC3)cc21

# Molecular target: T2, Caspase-3 (Homo sapiens, UniProt P42574)
# T2 sequence (P42574 whole entry): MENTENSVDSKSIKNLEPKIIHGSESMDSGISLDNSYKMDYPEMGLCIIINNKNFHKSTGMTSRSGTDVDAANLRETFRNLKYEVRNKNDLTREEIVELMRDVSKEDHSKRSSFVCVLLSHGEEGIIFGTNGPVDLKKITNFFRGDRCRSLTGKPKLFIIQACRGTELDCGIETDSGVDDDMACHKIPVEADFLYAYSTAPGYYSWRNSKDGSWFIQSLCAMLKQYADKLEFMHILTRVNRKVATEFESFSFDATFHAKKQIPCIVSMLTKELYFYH
# Assay: Inhibition of human recombinant caspase 3 assessed as accumulation of fluorogenic product by fluorometric assay
row,IC50 [nM],SMILES
1,673,COc1ccc(CN2C(=O)C(=C(C#N)C#N)c3cc(S(=O)(=O)N4CCCC4)ccc32)cc1
2,4630,COc1ccc(CN2C(=O)C(=C(C#N)C#N)c3cc(S(=O)(=O)N4CCOCC4)ccc32)cc1
3,724,N#CC(C#N)=C1C(=O)N(Cc2ccc(Cl)c(Cl)c2)c2ccc(S(=O)(=O)N3CCCC3)cc21
4,1030,O=C1C(=O)N(Cc2ccccc2)c2ccc(S(=O)(=O)N3CCSCC3)cc21
5,1430,O=C1C(=O)N(Cc2ccc(Cl)c(Cl)c2)c2ccc(S(=O)(=O)N3CCOCC3)cc21
6,718,COc1ccc(CN2C(=O)C(=C(C#N)C#N)c3cc(S(=O)(=O)N4CCC4)ccc32)cc1
7,1450,N#CC(C#N)=C1C(=O)N(Cc2ccccc2)c2ccc(S(=O)(=O)N3CCSCC3)cc21
8,1670,COc1ccc(CN2C(=O)C(=C(C#N)C#N)c3cc(S(=O)(=O)N4CCSCC4)ccc32)cc1
9,323,N#CC(C#N)=C1C(=O)N(Cc2ccccc2)c2ccc(S(=O)(=O)N3CCC3)cc21
10,671,N#CC(C#N)=C1C(=O)N(Cc2ccccc2)c2ccc(S(=O)(=O)N3CCCC3)cc21

# Molecular target: T3, Caspase-6 (Homo sapiens, UniProt P55212)
# T3 sequence (P55212 whole entry): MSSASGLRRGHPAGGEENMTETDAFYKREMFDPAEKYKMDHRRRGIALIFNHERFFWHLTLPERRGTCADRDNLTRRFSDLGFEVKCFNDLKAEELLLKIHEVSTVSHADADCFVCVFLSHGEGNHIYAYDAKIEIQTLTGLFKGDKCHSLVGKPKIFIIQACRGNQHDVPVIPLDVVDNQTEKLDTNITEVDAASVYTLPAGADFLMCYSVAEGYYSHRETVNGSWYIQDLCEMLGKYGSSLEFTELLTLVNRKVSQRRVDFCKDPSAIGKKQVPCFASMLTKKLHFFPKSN
# Assay: Inhibition of human recombinant caspase 6 assessed as accumulation of fluorogenic product by fluorometric assay
row,IC50 [nM],SMILES
1,358,COc1ccc(CN2C(=O)C(=C(C#N)C#N)c3cc(S(=O)(=O)N4CCCC4)ccc32)cc1
2,453,COc1ccc(CN2C(=O)C(=C(C#N)C#N)c3cc(S(=O)(=O)N4CCOCC4)ccc32)cc1
3,468,N#CC(C#N)=C1C(=O)N(Cc2ccc(Cl)c(Cl)c2)c2ccc(S(=O)(=O)N3CCCC3)cc21
4,12800,O=C1C(=O)N(Cc2ccccc2)c2ccc(S(=O)(=O)N3CCSCC3)cc21
5,> 15000,O=C1C(=O)N(Cc2ccc(Cl)c(Cl)c2)c2ccc(S(=O)(=O)N3CCOCC3)cc21
6,197,COc1ccc(CN2C(=O)C(=C(C#N)C#N)c3cc(S(=O)(=O)N4CCC4)ccc32)cc1
7,151,N#CC(C#N)=C1C(=O)N(Cc2ccccc2)c2ccc(S(=O)(=O)N3CCSCC3)cc21
8,188,COc1ccc(CN2C(=O)C(=C(C#N)C#N)c3cc(S(=O)(=O)N4CCSCC4)ccc32)cc1
9,156,N#CC(C#N)=C1C(=O)N(Cc2ccccc2)c2ccc(S(=O)(=O)N3CCC3)cc21
10,241,N#CC(C#N)=C1C(=O)N(Cc2ccccc2)c2ccc(S(=O)(=O)N3CCCC3)cc21

# Molecular target: T4, Caspase-7 (Homo sapiens, UniProt P55210)
# T4 sequence (P55210 whole entry): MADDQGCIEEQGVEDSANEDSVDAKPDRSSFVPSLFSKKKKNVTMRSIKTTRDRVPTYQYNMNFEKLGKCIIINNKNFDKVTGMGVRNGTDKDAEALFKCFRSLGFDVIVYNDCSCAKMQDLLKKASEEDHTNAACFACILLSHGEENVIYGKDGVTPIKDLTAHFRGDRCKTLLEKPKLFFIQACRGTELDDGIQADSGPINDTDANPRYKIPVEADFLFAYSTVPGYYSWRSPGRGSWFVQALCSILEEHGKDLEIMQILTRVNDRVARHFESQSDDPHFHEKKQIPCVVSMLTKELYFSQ
# Assay: Inhibition of human recombinant caspase 7 assessed as accumulation of fluorogenic product by fluorometric assay
row,IC50 [nM],SMILES
1,443,COc1ccc(CN2C(=O)C(=C(C#N)C#N)c3cc(S(=O)(=O)N4CCCC4)ccc32)cc1
2,4100,COc1ccc(CN2C(=O)C(=C(C#N)C#N)c3cc(S(=O)(=O)N4CCOCC4)ccc32)cc1
3,471,N#CC(C#N)=C1C(=O)N(Cc2ccc(Cl)c(Cl)c2)c2ccc(S(=O)(=O)N3CCCC3)cc21
4,1480,O=C1C(=O)N(Cc2ccccc2)c2ccc(S(=O)(=O)N3CCSCC3)cc21
5,2230,O=C1C(=O)N(Cc2ccc(Cl)c(Cl)c2)c2ccc(S(=O)(=O)N3CCOCC3)cc21
6,471,COc1ccc(CN2C(=O)C(=C(C#N)C#N)c3cc(S(=O)(=O)N4CCC4)ccc32)cc1
7,1620,N#CC(C#N)=C1C(=O)N(Cc2ccccc2)c2ccc(S(=O)(=O)N3CCSCC3)cc21
8,1890,COc1ccc(CN2C(=O)C(=C(C#N)C#N)c3cc(S(=O)(=O)N4CCSCC4)ccc32)cc1
9,248,N#CC(C#N)=C1C(=O)N(Cc2ccccc2)c2ccc(S(=O)(=O)N3CCC3)cc21
10,587,N#CC(C#N)=C1C(=O)N(Cc2ccccc2)c2ccc(S(=O)(=O)N3CCCC3)cc21

# Molecular target: Caspase-8 (Homo sapiens, UniProt Q14790)
# Sequence (Q14790 217-374 limits assumed): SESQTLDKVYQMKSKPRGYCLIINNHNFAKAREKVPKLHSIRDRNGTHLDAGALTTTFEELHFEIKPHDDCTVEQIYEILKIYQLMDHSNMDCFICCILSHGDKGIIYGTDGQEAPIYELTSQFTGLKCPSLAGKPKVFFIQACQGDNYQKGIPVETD
# Sequence (Q14790 385-479 limits assumed): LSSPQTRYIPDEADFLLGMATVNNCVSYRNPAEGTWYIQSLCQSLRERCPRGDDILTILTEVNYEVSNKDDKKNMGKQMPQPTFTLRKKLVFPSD
# Assay: Inhibition of human recombinant caspase 8 assessed as accumulation of fluorogenic product by fluorometric assay
row,IC50 [nM],SMILES
1,> 50000,COc1ccc(CN2C(=O)C(=C(C#N)C#N)c3cc(S(=O)(=O)N4CCCC4)ccc32)cc1
2,> 50000,COc1ccc(CN2C(=O)C(=C(C#N)C#N)c3cc(S(=O)(=O)N4CCOCC4)ccc32)cc1
3,> 50000,N#CC(C#N)=C1C(=O)N(Cc2ccc(Cl)c(Cl)c2)c2ccc(S(=O)(=O)N3CCCC3)cc21
4,> 50000,O=C1C(=O)N(Cc2ccccc2)c2ccc(S(=O)(=O)N3CCSCC3)cc21
5,> 50000,O=C1C(=O)N(Cc2ccc(Cl)c(Cl)c2)c2ccc(S(=O)(=O)N3CCOCC3)cc21
6,> 50000,COc1ccc(CN2C(=O)C(=C(C#N)C#N)c3cc(S(=O)(=O)N4CCC4)ccc32)cc1
7,> 50000,N#CC(C#N)=C1C(=O)N(Cc2ccccc2)c2ccc(S(=O)(=O)N3CCSCC3)cc21
8,> 50000,COc1ccc(CN2C(=O)C(=C(C#N)C#N)c3cc(S(=O)(=O)N4CCSCC4)ccc32)cc1
9,> 50000,N#CC(C#N)=C1C(=O)N(Cc2ccccc2)c2ccc(S(=O)(=O)N3CCC3)cc21
10,> 50000,N#CC(C#N)=C1C(=O)N(Cc2ccccc2)c2ccc(S(=O)(=O)N3CCCC3)cc21

# Species: Homo sapiens
# Assay: Selectivity for human recombinant caspase 3 over human recombinant caspase 6
row,fold change (FC),SMILES
1,10,O=C1C(=O)N(Cc2ccccc2)c2ccc(S(=O)(=O)N3CCSCC3)cc21
